Columns and labels:
HeLa cells = assay: Luciferase protein expression after transfection of capped luciferase RNA into HeLa cells; type: cell-based; conditions: for protein expression compared with mCAP: capped luciferase RNAs with poly(A) tail, different time points after transfection, higher than mCAP
Procedure: Structures were confirmed by ^1H NMR and ^31P NMR. Transcripts produced with T7 RNA polymerases using “anti-reverse” cap analogs (ARCAs) were of the predicted length and indistinguishable in size and homogeneity from those produced with m^7GpppG. Transfection assays were performed by using standard cap analog-capped and ARCA-capped luciferase in in vitro transcribed RNA with HeLa cells.

[1] = system: phage RNA polymerase such as T7, T3 or SP6; conditions: cited from earlier work

Structure (SMILES) | protein expression compared with mCAP (HeLa cells) | attachment of cap to RNA in the reverse orientation ([1]; NTPs and cap RNA present in comparable concentrations) | capped RNA in transcription product ([1]; m7GpppG to GTP 4:1, mMESSAGE mMACHINE kit, rest 20% uncapped) [%] | translation of capped transcripts in transfected cells (HeLa cells; compared with mCAP, double methylated and ARCA capped luciferase RNAs)
CO[C@H]1[C@@H](O)[C@H](n2c[n+](C)c3c(=O)[nH]c(N)nc32)O[C@@H]1COP(=O)(O)OP(=O)(O)OP(=O)(O)OC[C@H]1O[C@@H](n2cnc3c(=O)[nH]c(N)nc32)[C@H](O)[C@@H]1O [ARCA, m2^7,3′OG[5′]ppp[5′]G] | 3 fold |  |  | 
C[n+]1cn([C@@H]2O[C@H](COP(=O)(O)OP(=O)(O)OP(=O)(O)OC[C@H]3O[C@@H](n4c[n+](C)c5c(=O)[nH]c(N)nc54)[C@H](O)[C@@H]3O)[C@@H](O)[C@H]2O)c2nc(N)[nH]c(=O)c21 [double methylated cap, m^7 (5′)Gppp(5′)m^7G] | one fold higher |  |  | 
Cn1c[n+]([C@@H]2O[C@H](COP(=O)(O)OP(=O)(O)OP(=O)(O)OC[C@H]3O[C@@H](n4cnc5c(=O)[nH]c(N)nc54)[C@H](O)[C@@H]3O)[C@@H](O)[C@H]2O)c2nc(N)[nH]c(=O)c21 [mCAP, m^7G(5′)ppp(5′)G] |  | around 50% | 80 | 
COC1C(COP(=O)([O-])OP(=O)(O)OP(=O)([O-])OCC2OC(n3c[n+](C)c4c(=O)[nH]c(N)nc43)C(O)C2O)OC(n2c[n+](C)c3c(=O)[nH]c(N)nc32)C1O (stereo not drawn) [triple methylated cap, m2^7,3′OG[5′]ppp[5′]m^7G] | 4 fold |  |  | more highly translated
